The structures appear in SMILES notation.

Assay [1] deals with T1, β1-receptors of the heart (Canis lupus familiaris, UniProt P79148).
T1 construct: from tissue; host or cells: heart (left ventricle) of anaesthetised mongrel dogs, in vivo
The experiment in a line: Inhibition of isoproterenol-induced increase in rate of pressure rise (Dp/dt max.) in left ventricle of anaesthetised dogs (β1-receptor inhibition). Type of assay: in vivo, mongrel dogs. Particulars: for ED50: dog, iv, read-out: β1-receptor inhibition ED 50; for Quotient: ED 50 of β2-receptor inhibition / ED 50 of β1-receptor inhibition / Relative quotient, on basis of reference substance = 1 / Relative β1-receptor inhibition (reference substance = 100): dogs; for Quotient: ED 50 of β2-receptor inhibition / ED 50 of β1-receptor inhibition: cardioselectivity, higher = better; for Relative quotient, on basis of reference substance = 1: relative cardioselectivity factor; for Relative β1-receptor inhibition (reference substance = 100): relative ED 50, lower = more active. Here is the method:
(§1) The blocking action of the compounds according to the invention on the β1-receptors of the heart and on the β2-receptors of the cardiovascular system was investigated as follows: the blood pressure in the left-hand ventricle was measured on mongrel dogs of both sexes under an anaesthesia by Chloralose-urethane-morphine and the pressure signal was continuously differentiated by means of an analogue computer (BRUSH Instruments, Cleveland/Ohio) and, inter alia, the rate of pressure increase (Dp/dt) was recorded. In addition, the perfusion of a femoral artery was measured by means of an electromagnetic flow-meter (Model […] of Messrs. Statham) and the perfusion was recorded in ml/minute. […] DUNLOP and […]: Selective blockade of adrenoceptive beta-receptors in the heart. Brit. J. Pharmac. Chemother. (1968) 32, 201-218). […] The higher this quotient is, the better the cardioselective action.

The target of assay [2] is T2, β2-receptors of the cardiovascular system (Canis lupus familiaris, UniProt P54833).
T2 construct: from tissue; host or cells: femoral artery vascular bed of anaesthetised mongrel dogs, in vivo
Description: Inhibition of isoproterenol-induced alteration of peripheral (femoral artery) perfusion in anaesthetised dogs (β2-receptor inhibition). Type of assay: in vivo, mongrel dogs. The note with it: for ED50: dog, iv, read-out: β2-receptor inhibition ED 50; for Relative β2-receptor inhibition (reference substance = 100): relative ED 50, dogs. Here is the method: as §1

The next assay concerns cardiac β1-receptors. Description: Inhibition of isoproterenol-induced increase in heart rate in anaesthetized guinea pigs (β1-receptor inhibition). Type of assay: in vivo. The note with it: for β1-receptor inhibition, parameter: heart rate response to isoproterenol: ED-50: i.v., guinea pigs anaesthetized with urethane, isoproterenol 0.5 gamma/animal. Here is the method: The isoproterenol-induced increase in heart rate in anaesthetized animals represents mainly the response of the cardiac β1-receptors. The dose of the antagonists (mg/kg i.v.) which inhibits this response of isoproterenol (0.5 gamma/animal) in guinea pigs, anaesthetized with urethane, by 50% : ED-50 was determined.

A further assay deals with T3, tracheal β2-receptors (Cavia porcellus, UniProt Q8K4Z4).
T3 construct: isolated tracheal chain of guinea pigs; from tissue; host or cells: isolated guinea pig tracheal chain
Description: Inhibition of isoproterenol-induced relaxation of contracted isolated tracheal chain (β2-receptor inhibition). Details: species or system guinea pigs. Here is the method: The isoproterenol-induced relaxation of contracted isolated tracheal chain of guinea pigs represents the response of the tracheal β2-receptors. The bath concentrations of the antagonists which reduce the isoproterenol effects by 50% were determined: ED-50 : g/ml bath.

T1 sequence (P79148 whole entry): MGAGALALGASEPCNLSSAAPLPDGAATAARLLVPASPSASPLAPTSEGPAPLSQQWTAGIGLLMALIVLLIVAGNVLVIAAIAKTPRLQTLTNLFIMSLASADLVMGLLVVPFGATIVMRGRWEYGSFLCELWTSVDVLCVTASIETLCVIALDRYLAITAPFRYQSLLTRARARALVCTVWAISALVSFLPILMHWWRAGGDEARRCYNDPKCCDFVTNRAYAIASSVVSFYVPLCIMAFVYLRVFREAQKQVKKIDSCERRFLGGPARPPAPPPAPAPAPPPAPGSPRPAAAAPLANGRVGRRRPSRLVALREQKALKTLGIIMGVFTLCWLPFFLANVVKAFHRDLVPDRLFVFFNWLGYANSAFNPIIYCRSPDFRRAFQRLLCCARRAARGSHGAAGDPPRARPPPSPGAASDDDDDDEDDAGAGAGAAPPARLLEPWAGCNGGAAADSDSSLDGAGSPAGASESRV
T2 sequence (P54833 whole entry): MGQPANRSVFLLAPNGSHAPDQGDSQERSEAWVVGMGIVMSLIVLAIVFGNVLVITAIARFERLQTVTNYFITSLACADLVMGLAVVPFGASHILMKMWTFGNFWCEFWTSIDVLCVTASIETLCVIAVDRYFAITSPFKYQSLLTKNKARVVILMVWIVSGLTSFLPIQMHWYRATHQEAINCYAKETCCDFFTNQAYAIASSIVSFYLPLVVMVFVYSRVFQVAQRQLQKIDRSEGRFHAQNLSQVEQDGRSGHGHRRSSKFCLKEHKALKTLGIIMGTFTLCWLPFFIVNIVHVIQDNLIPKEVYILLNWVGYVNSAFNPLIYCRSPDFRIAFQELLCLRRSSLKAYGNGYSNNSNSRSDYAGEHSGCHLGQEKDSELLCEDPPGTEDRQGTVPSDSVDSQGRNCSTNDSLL
T3 sequence (Q8K4Z4 whole entry): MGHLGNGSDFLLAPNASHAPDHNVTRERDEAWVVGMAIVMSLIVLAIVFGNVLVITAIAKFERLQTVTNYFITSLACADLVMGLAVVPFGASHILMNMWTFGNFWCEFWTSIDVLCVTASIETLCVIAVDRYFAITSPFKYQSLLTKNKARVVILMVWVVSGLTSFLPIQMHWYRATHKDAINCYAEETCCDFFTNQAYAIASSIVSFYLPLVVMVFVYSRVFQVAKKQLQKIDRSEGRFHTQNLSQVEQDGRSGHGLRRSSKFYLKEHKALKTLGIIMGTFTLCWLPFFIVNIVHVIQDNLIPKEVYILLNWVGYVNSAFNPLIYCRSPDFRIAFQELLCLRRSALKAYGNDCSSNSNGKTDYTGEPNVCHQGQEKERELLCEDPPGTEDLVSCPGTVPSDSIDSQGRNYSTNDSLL

`CCNC(=O)Nc1ccc(OCC(O)CNC(C)CC(O)c2cnc(C)nc2C)cc1` (centres unmarked) [1-(p-Ethylureido-phenoxy)-3-(1-[2,4-dimethyl-pyrimidyl-5-]-1-hydroxy-butyl(3)-amino)-propan-2-ol]: in assay [1], the ED50 was determined as 0.093 mg/kg; the “Quotient: ED 50 of β2-receptor inhibition / ED 50 of β1-receptor inhibition” value is 137; the “Relative quotient, on basis of reference substance = 1” value (from here on “Relative quotient, on basis”) was found to be 1.2; the “Relative β1-receptor inhibition (reference substance = 100)” value (from here on “Relative β1-receptor inhibition”) is reported as 39.1. In assay [2], the ED50 was 12.8 mg/kg and the “Relative β2-receptor inhibition (reference substance = 100)” value (from here on “Relative β2-receptor inhibition”) was 48.3.
As to `CCOCCOc1ccc(OCC(O)CNC(C)CC(O)c2cccnc2)cc1` (centres unmarked) [1-(p-Ethoxyethoxy-phenoxy)-3-(1-[pyridyl-3]-1-hydroxy-butyl(3)-amino)-propan-2-ol], in assay [1], the ED50 amounted to 0.009 mg/kg; the “Quotient: ED 50 of β2-receptor inhibition / ED 50 of β1-receptor inhibition” value was found to be 296; the “Relative quotient, on basis” value amounted to 2.7; the “Relative β1-receptor inhibition” value was 3.8. Moreover, in assay [2], the ED50 turned out to be 2.76 mg/kg and the “Relative β2-receptor inhibition” value stood at 10.1.
Consider `Cc1ccc(C(O)CC(C)NCC(O)COc2ccc(OCCO)cc2)cn1` (centres unmarked) [1-(-p-[2-Hydroxy-ethoxy]-henoxy)-3-(1-[2-methyl-pyridyl-5]-1-hydroxy-butyl(3)-amino)-propan-2-ol], for which, in assay [1], the ED50 stood at 0.073 mg/kg; the “Quotient: ED 50 of β2-receptor inhibition / ED 50 of β1-receptor inhibition” value was determined as 112; the “Relative quotient, on basis” value was determined as 1; the “Relative β1-receptor inhibition” value came to 30.7. Further, in assay [2], the ED50 was 8.14 mg/kg and the “Relative β2-receptor inhibition” value stood at 30.7.
In the case of `CCOCc1ccc(OCC(O)CNC(C)CC(O)c2cccnc2)cc1` (centres unmarked) [1-(p-Ethoxymethylene-phenoxy)-3-(1-[pyridyl-3]-1-hydroxy-butyl(3)-amino)-propan-2-ol], in assay [1], the ED50 was found to be 0.01 mg/kg and the “Relative β1-receptor inhibition” value was 4.2.
The matching figures for `C=CCNC(=O)Nc1ccc(OCC(O)CNC(C)CC(O)c2cnc(C)nc2C)cc1` (centres unmarked) [1-(p-Allylureido-phenoxy)-3-(1-[2,4-dimethyl-pyrimidyl-5]-1-hydroxy-butyl(3)-amino)-propan-2-ol]: 0.019 mg/kg and 7.9.
`CCCOCCOc1ccc(OCC(O)CNC(C)CC(O)c2ccc(C)nc2)cc1` (centres unmarked) [1-(p-[2-n-propoxy-ethoxy]-phenoxy)-3-(1-[2-methyl-pyridyl-5]-1-hydroxy-butyl(3)-amino)-propan-2-ol]: the “Relative β1-receptor inhibition” value in the assay with cardiac β1-receptors (heart rate, guinea pigs) worked out at 3.39. Besides, in the assay on cardiac β1-receptors, the “β1-receptor inhibition, parameter: heart rate response to isoproterenol: ED-50” value is 0.177 mg/kg. In assay [1], the ED50 is 0.035 mg/kg; the “Quotient: ED 50 of β2-receptor inhibition / ED 50 of β1-receptor inhibition” value worked out at 146; the “Relative quotient, on basis” value amounted to 1.3; the “Relative β1-receptor inhibition” value was determined as 14.7. The IC50 on tracheal β2-receptors (bath concentration reducing isoproterenol effects by 50%, guinea pig trachea, read-out: β2-receptor inhibition, parameter: isolated tracheal chain: ED-50 (converted)) is 6.94 µM. Further, the “Relative β2-receptor inhibition” value on tracheal β2-receptors (isolated tracheal chain, guinea pigs) is reported as 7.7. In assay [2], the ED50 was found to be 5.1 mg/kg and the “Relative β2-receptor inhibition” value is 19.2.
Regarding `CC(=O)Nc1ccc(OCC(O)CNC(C)C)cc1` (centres unmarked) [4-(2-Hydroxy-3-isopropylamino-propoxy)-acetanilide, reference compound], the “β1-receptor inhibition, parameter: heart rate response to isoproterenol: ED-50” value in the assay with cardiac β1-receptors is 5.3 mg/kg.
Regarding `Cc1ccc(C(O)CC(C)NCC(O)COc2ccc(NC(=O)NC3CCCCC3)cc2)cn1` (centres unmarked) [1-(p-Cyclohexylureido-phenoxy)-3-(1-[2-methyl-pyridyl-5]-1-hydroxy-butyl(3)-amino)-propan-2-ol], in assay [1], the ED50 came to 0.006 mg/kg; the “Quotient: ED 50 of β2-receptor inhibition / ED 50 of β1-receptor inhibition” value is listed as 245; the “Relative quotient, on basis” value is 2.4; the “Relative β1-receptor inhibition” value was determined as 2.5. Also, in assay [2], the ED50 is 1.57 mg/kg and the “Relative β2-receptor inhibition” value came out at 5.9.
On to `CCOCc1ccc(OCC(O)CNC(C)CC(O)c2cnc(C)nc2C)cc1` (centres unmarked) [1-(p-Ethoxymethylene-phenoxy)-3-(1-[2,4-dimethyl-pyrimidyl-5]-1-hydroxy-butyl(3)-amino)-propan-2-ol], for which, in assay [1], the ED50 came out at 0.019 mg/kg; the “Quotient: ED 50 of β2-receptor inhibition / ED 50 of β1-receptor inhibition” value is reported as 144; the “Relative quotient, on basis” value was found to be 1.4; the “Relative β1-receptor inhibition” value is on record as 7.9. Further, in assay [2], the ED50 stood at 2.88 mg/kg and the “Relative β2-receptor inhibition” value was 10.7.
With `Cc1ncc(C(O)CC(C)NCC(O)COc2ccc(NC(=O)NC3CCCCC3)cc2)c(C)n1` (centres unmarked) [1-(p-Cyclohexylureido-phenoxy)-3-(1-[2,4-dimethyl-pyrimidyl-5] -1-hydroxy-butyl(3)-amino)-propan-2-ol], in assay [1], the ED50 was 0.011 mg/kg; the “Quotient: ED 50 of β2-receptor inhibition / ED 50 of β1-receptor inhibition” value is listed as 128; the “Relative quotient, on basis” value is on record as 1.1; the “Relative β1-receptor inhibition” value came to 4.6. Besides, in assay [2], the ED50 worked out at 1.38 mg/kg and the “Relative β2-receptor inhibition” value came out at 5.2.
In the case of `CCNC(=O)Nc1ccc(OCC(O)CNC(C)CC(O)c2cccnc2)cc1` (centres unmarked) [1-(p-Ethylureido-phenoxy)-3-(1-[pyridyl-3]-1-hydroxy-butyl(3)-amino)-propan-2-ol], in assay [1], the ED50 was found to be 0.013 mg/kg and the “Relative β1-receptor inhibition” value came to 5.5.
`Cc1ncc(C(O)CC(C)NCC(O)COc2ccc(NC(=O)NC(C)C)cc2)c(C)n1` (centres unmarked) [1-(p-Isopropylureido- -phenoxy)-3-(1-[2,4-dimethyl-pyrimidyl-5]-1-hydroxy-butyl(3)-amino)-propan-2-ol]: in assay [1], the ED50 came to 0.022 mg/kg; the “Quotient: ED 50 of β2-receptor inhibition / ED 50 of β1-receptor inhibition” value came out at 124; the “Relative quotient, on basis” value was determined as 1.1; the “Relative β1-receptor inhibition” value was found to be 9.2. In assay [2], the ED50 stood at 2.71 mg/kg and the “Relative β2-receptor inhibition” value was 10.2.
With `CC(CC(O)c1cccnc1)NCC(O)COc1ccc(NC(=O)NC2CCCCC2)cc1` (centres unmarked) [1-(p-Cyclohexylureidophenoxy)-3-(1-hydroxy-1-pyridyl-(3)-butyl3-amino)-propan-2-ol], in assay [1], the ED50 was 0.003 mg/kg; the “Quotient: ED 50 of β2-receptor inhibition / ED 50 of β1-receptor inhibition” value was 409; the “Relative quotient, on basis” value was 2.9; the “Relative β1-receptor inhibition” value is given as 1.3. In assay [2], the ED50 was found to be 1.02 mg/kg and the “Relative β2-receptor inhibition” value is given as 3.8.
Consider `COCCCCOc1ccc(OCC(O)CNC(C)CC(O)c2cnc(C)nc2C)cc1` (centres unmarked) [1-(p-Methoxybutoxy-phenoxy)-3-(1-[2,4-dimethyl-pyrimidyl-5]-hydroxy-butyl(3)-amino)-propan-2-ol], for which, in assay [1], the ED50 is 0.089 mg/kg; the “Quotient: ED 50 of β2-receptor inhibition / ED 50 of β1-receptor inhibition” value was 176; the “Relative quotient, on basis” value stood at 1.6; the “Relative β1-receptor inhibition” value is 37.4. Moreover, in assay [2], the ED50 stood at 16 mg/kg and the “Relative β2-receptor inhibition” value is on record as 58.8.
